Where “and” joins values, the source holds several entries; their conditions need not be identical. Equal entries are not always repeated. Where two headings read alike, the source gives them in different places.
Tests used:
P. berghei hepatic stage [1] = test system: P. berghei hepatic stage; design: method as in Bártolo et al., 2021; Alves et al., 2021c; details: hepatic infection; ref Bártolo et al., 2021; Alves et al., 2021c; cited from earlier work
HIV-2 03PTHCC19 [2] = test system: HIV-2 03PTHCC19; design: method as in Bártolo et al., 2021; details: ref Bártolo et al., 2021, cited from earlier work
HIV-1 SG3.1 [3] = details: ref Bártolo et al., 2021, cited from earlier work; for IC50: Alves et al., 2021c
HIV protease = test system: HIV protease; design: method as in Bártolo et al., 2021; details: ref Bártolo et al., 2021; cited from earlier work
[4] = test system: P. falciparum strain NF54; design: method as in Bártolo et al., 2021; Alves et al., 2021c; details: erythrocytic infection; ref Bártolo et al., 2021; Alves et al., 2021c; cited from earlier work
TZM-bl cells = test system: TZM-bl cells; design: method as in Bártolo et al., 2021; details: lead molecule, ref Bártolo et al., 2021; cited from earlier work
[5] = test system: P. falciparum strain NF54; assay: Blood stage antiplasmodial activity, SYBR green I flow cytometry; format: cell-based; details: Plasmodium falciparum, NF54, 48 h
Experimental: Ring-stage synchronized cultures of P. falciparum strain NF54 at 2.5% hematocrit and at approximately 1% parasitemia were incubated with test compounds or dimethyl sulfoxide (DMSO, vehicle control) in 96-well plates for 48 h at 37°C in a 5% CO2 and 5% O2 atmosphere. Stock solutions of chloroquine (positive control) and compounds 9i, 12a, and 14a were prepared in DMSO. Working solutions were prepared from the stock solutions in complete malaria culture medium (CMCM), which consists of RPMI 1640 supplemented with 25 mM HEPES, 2.4 mM L-glutamine, 50 μg/ml gentamicin, 0.5% w/v Albumax, 11 mM glucose, 1.47 mM hypoxanthine, and 37.3 mM NaHCO3. For each measurement, 5 μl of the culture (approximately 800,000 cells) were stained with the DNA-specific dye SYBR green I. After 20 min of incubation in the dark, the stained sample was analyzed by flow cytometry. Approximately 100,000 events were analyzed in each flow cytometry measurement. Two independent experiments were performed, and all samples were analyzed in triplicate.

P. berghei hepatic stage [6] = assay: In vitro hepatic infection of Huh7 cells by luciferase-expressing P. berghei; format: cell-based; details: Plasmodium berghei
Experimental: The inhibitory activity of test compounds on in vitro hepatic infection by P. berghei was determined by comparing the parasite load in compound- and solvent-treated P. berghei-infected Huh7 cells. Infection load was assessed by measurement of luminescence intensity in Huh7 cells infected, with a firefly luciferase-expressing P. berghei line, as previously described ([Ploemen et al., 2009]; [António et al., 2017]). Briefly, Huh7 cells were seeded in 96-well plates (1.0 × 10^4 cells per well) the day before drug treatment and infection. The medium was replaced by another medium containing the appropriate concentration of each compound approximately 1 h prior to infection with sporozoites freshly obtained through disruption of salivary glands of infected female Anopheles stephensi mosquitoes. Sporozoite addition was followed by centrifugation at 1,800 g for 5 min. Parasite infection load was measured 48 h after infection by a bioluminescence assay (Biotium). Cell confluence, a surrogate measure of compound toxicity to Huh7 cells, was assessed by fluorescence measurements using the alamarBlue assay, according to the manufacturer’s instructions. […] Specifically, non-linear regression analysis was employed to fit the normalized results of the dose-response curves, and IC50 values were determined using GraphPad Prism 8.0 (GraphPad Software, La Jolla, California, United States).

[7] = Cellular viability assay (alamarBlue) in TZM-bl cells; format: cell-based; details: human, 50% cytotoxic concentration
Experimental: Before the antiviral activity screening, all spirocyclopentene-β-lactams were assayed for their in vitro cytotoxic activity (CC50) in TZM-bl cells (Table 4).
TZM-bl cells (AIDS Research and Reference Reagent Program, National Institutes of Health, United States) were cultured in complete growth medium consisting of Dulbecco’s Minimal Essential Medium (DMEM) supplemented with 10% fetal bovine serum (FBS), 100 U/ml of penicillin–streptomycin (Gibco/Invitrogen, United States), 1 mM of sodium pyruvate (Gibco/Invitrogen, United States), 2 mM of L-glutamine (Gibco/Invitrogen, United States), and 1 mM of non-essential amino acids (Gibco/Invitrogen, United States). Cell cultures were maintained at 37°C in 5% CO2.
The in vitro cytotoxicity of test compounds was evaluated in TZM-bl cells using alamarBlue cell viability reagent (Life Technologies, United States), according to the instructions of the manufacturer. The cells were cultured in the presence and absence of serial-fold dilutions of the test compounds. Each dilution of each compound was performed in triplicate wells. Medium controls (only growth medium), cell controls (cells without test compound), and cytotoxicity controls (a compound that kills cells) were employed in each assay.

HIV-1 SG3.1 [8] = assay: microbe, parasite or virus in culture; details: Human immunodeficiency virus 1, TZM-bl
Excerpt: (§1) The HIV-1 SG3.1 is a reference subtype B strain that uses the CXCR4 coreceptor. It was obtained by transfection of HEK293T cells with pSG3.1 plasmid using jetPRIME transfection reagent (Polyplus-transfection SA, Illkirch, France), according to the instructions of the manufacturer.
(§2) Briefly, TZM-bl cells were infected with 200 TCID50 of HIV-1 or HIV-2 in the presence of serial-fold dilutions of the compounds in the growth medium, supplemented with diethylaminoethyl-dextran (DEAE-dextran). After 48 h of infection, luciferase expression was quantified with Pierce Firefly Luc One-Step Glow Assay Kit (ThermoFisher Scientific, Rockford, United States), according to the instructions of the manufacturer. For each compound dilution, the assay was set up in triplicate wells. Virus controls, cell controls, and inhibitors controls (drugs with a known action against each virus) were employed.

HIV-2 03PTHCC19 [9] = assay: microbe, parasite or virus in culture; details: Human immunodeficiency virus 2, TZM-bl
Excerpt: as §1, §2

Structure (SMILES): COC(=O)C1C(C(=O)OCc2ccccc2)=CCC12C(=O)N1C(C(=O)OC(c3ccccc3)c3ccccc3)C(C)(C)SC12 (stereo not shown) [BSS-722A]
- IC50 (P. berghei hepatic stage [1]): < 5000 nM
- IC50 (HIV-2 03PTHCC19 [2]): 510 nM
- IC50 (HIV-1 SG3.1 [3]): 650 nM

Structure (SMILES): CC1(C)SC2N(C(=O)C23CC=C(C(=O)OCc2ccccc2)C3C(=O)c2ccccc2)C1C(=O)OC(c1ccccc1)c1ccccc1 (stereo not shown) [BSS-730A]
- IC50 (P. berghei hepatic stage [1]): 550 ± 140 nM
- HIV antiprotease activity (in words) (HIV protease): no HIV antiprotease activity
- IC50 [4]: 430 ± 40 nM
- CC50 (TZM-bl cells): 76800 nM
- MPI (%) 25 μg/mL (HIV-2 03PTHCC19 [2]; HIV-2, 25 μg/mL, lead molecule): 99%
- Therapeutic index (CC50/IC50) (HIV-2 03PTHCC19 [2]; HIV-2, lead molecule): 9605.00
- IC90 (HIV-2 03PTHCC19 [2]; lead molecule): 64 nM
- IC50 (HIV-2 03PTHCC19 [2]): 8 nM
- MPI (%) 25 μg/mL (HIV-1 SG3.1 [3]; HIV-1, 25 μg/mL, lead molecule): 99%
- Therapeutic index (CC50/IC50) (HIV-1 SG3.1 [3]; HIV-1, lead molecule): 5488.57
- IC90 (HIV-1 SG3.1 [3]; lead molecule): 25 nM
- IC50 (HIV-1 SG3.1 [3]): 14 nM

Structure (SMILES): COC(=O)C1=CCC2(C(=O)N3C(C(=O)OC(c4ccccc4)c4ccccc4)C(C)(C)SC32)C1C(=O)Oc1ccccc1 (stereo not shown) [Compound 4]
- IC50 (P. berghei hepatic stage [1]): 2290 nM
- IC50 [4]: 1260 nM

Structure (SMILES): CCOC(=O)C1=CCC2(C(=O)N3C(C(=O)OC(c4ccccc4)c4ccccc4)C(C)(C)SC32)C1C(=O)c1ccccc1 (stereo not shown) [Compound 5]
- IC50 (P. berghei hepatic stage [1]): 1920 nM
- IC50 [4]: 844 nM
- IC50 (HIV-1 SG3.1 [3]): 305 nM and < 300 nM

Structure (SMILES): COc1ccc(COC(=O)C2=CCC3(C(=O)N4C(C(=O)OC(c5ccccc5)c5ccccc5)C(C)(C)SC43)C2C(=O)c2ccccc2)cc1 (stereo not shown) [Compound 9i, (1’R,2’R)-Benzhydryl spiro[(2-benzoyl-3-(4-methoxybenzyloxycarbonyl)cyclopent-3-ene)-1’,6-penicillanate]]
- IC50 [5]: 336 ± 67 nM
- melting point: 65.3 to 67.4 °C
- inhibition at 1 µM (P. berghei hepatic stage [6]; Huh-7, read-out: percentage of inhibition of hepatic infection): < 50%
- IC50 (P. berghei hepatic stage [6]; Huh-7, hepatic stage, Huh7 cells, 48 h after infection): 285 ± 44 nM
- CC50 [7]: 35800 nM
- IC50 (HIV-1 SG3.1 [8]; 48 h, read-out: IC50 HIV-1, TZM-bl cells, 48 h): 15 nM
- IC90 (HIV-1 SG3.1 [8]; 48 h, read-out: IC90 HIV-1): 20 nM
- inhibition at 25 µg/mL (HIV-1 SG3.1 [8]; read-out: MPI (%) 25 μg/mL): 100%
- IC50 (HIV-2 03PTHCC19 [9]; 48 h, read-out: IC50 HIV-2): 111 nM
- IC90 (HIV-2 03PTHCC19 [9]; 48 h, read-out: IC90 HIV-2): 350 nM
- inhibition at 25 µg/mL (HIV-2 03PTHCC19 [9]; read-out: MPI (%) 25 μg/mL): 100%

From paper PMC9585939, “Unveiling a family of spiro-β-lactams with anti-HIV and antiplasmodial activity via phosphine-catalyzed [3+2] annulation of 6-alkylidene-penicillanates and allenoates” (Frontiers in Chemistry, 2022)
